Results: PubChem BioAssay (NCI)
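48-hour exposure; five concentrations; linearly interpolated endpoints. The concentration for 50% growth inhibition is given as GI50. TGI denotes the concentration required for complete inhibition of growth.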

Legend:
Experiment in all cases: NCI anticancer screen, dose series, 48 h
[1] = test system: 786-0 renal
[2] = test system: A498 renal
[3] = test system: DU-145 prostate
[4] = test system: EKVX NSCLC
[5] = test system: K-562 leukemia
[6] = test system: LOX IMVI melanoma
[7] = test system: NCI-H226 lung
[8] = test system: NCI-H460 lung
[9] = test system: NCI/ADR-RES ovarian
[10] = test system: TK-10 renal

COc1ccc(/C=C(/C#N)C(N)=O)cc1OC
TGI [1]: > 100 µM | TGI [2]: > 100 µM | TGI [3]: > 100 µM | TGI [4]: > 100 µM | TGI [5]: > 100 µM | TGI [6]: > 100 µM | TGI [7]: > 100 µM | TGI [8]: > 100 µM | TGI [9]: > 100 µM | TGI [10]: > 100 µM

Nc1nc2c(c3ncncc13)C(c1cccc(C(F)(F)F)c1)Cc1ncncc1-2 (stereo not given)
GI50 [1]: 4.43 µM | TGI [1]: 27.4 µM | GI50 [2]: 3.28 µM | TGI [2]: 8.75 µM | GI50 [3]: 3.78 µM | TGI [3]: > 100 µM | GI50 [4]: 6.18 µM | TGI [4]: > 100 µM | GI50 [5]: 3.74 µM | TGI [5]: 22.8 µM | GI50 [6]: 5.36 µM | TGI [6]: 21.1 µM | GI50 [7]: 9.61 µM | TGI [7]: 50.1 µM | GI50 [8]: 3.96 µM | TGI [8]: > 100 µM | GI50 [9]: 3.48 µM | TGI [9]: > 100 µM | GI50 [10]: 9.05 µM | TGI [10]: 79.4 µM

CC1OC(O[C@@H]2OC=C(C=O)[C@@]3(O)CC[C@H](C)[C@@H]23)C(O)C(O)C1O (stereo not given in full)
TGI [1]: > 100 µM | TGI [2]: > 100 µM | TGI [3]: > 100 µM | TGI [4]: > 100 µM | TGI [5]: > 100 µM | TGI [6]: > 100 µM | TGI [7]: > 100 µM | TGI [8]: > 100 µM | TGI [9]: > 100 µM | TGI [10]: > 100 µM

O=C(/C=C/c1ccccc1)c1cc(Br)ccc1O
TGI [1]: 28.8 µM | TGI [2]: 26.8 µM | TGI [3]: 28.4 µM | TGI [4]: 27.6 µM | TGI [5]: 43.1 µM | TGI [6]: 27.5 µM | TGI [7]: 31.7 µM | TGI [8]: 33.7 µM | TGI [9]: 34.9 µM | TGI [10]: 31.6 µM

C[C@@H]1C[C@H]2CC[C@H](O2)[C@H](C)C(=O)O[C@@H](C)C[C@@H]2CC[C@@H](O2)[C@@H](C)C(=O)O[C@H](C)C[C@H]2CC[C@H](O2)[C@H](C)C(=O)O[C@@H](C)C[C@@H]2CC[C@@H](O2)[C@@H](C)C(=O)O1
TGI [1]: 41.8 µM | TGI [2]: > 19.7 µM | TGI [3]: > 100 µM | TGI [4]: > 100 µM | TGI [5]: > 33.8 µM | TGI [6]: 2.82 µM | TGI [7]: > 93.5 µM | TGI [8]: > 100 µM | TGI [9]: 21 µM | TGI [10]: > 48.5 µM

O=C1c2cccnc2C(=O)c2nc3cc(N4CCN(C5CC5)CC4)ccc3nc21
GI50 [1]: 1.38 µM | TGI [1]: 4 µM | GI50 [2]: 1.34 µM | TGI [2]: 2.91 µM | GI50 [3]: 0.242 µM | TGI [3]: 0.833 µM | GI50 [4]: 1.68 µM | TGI [4]: 4.02 µM | GI50 [5]: 0.522 µM | TGI [5]: > 20.7 µM | GI50 [6]: 0.416 µM | TGI [6]: 1.86 µM | GI50 [7]: 1.46 µM | TGI [7]: 4.08 µM | GI50 [8]: 0.137 µM | TGI [8]: 0.352 µM | GI50 [9]: 1.95 µM | TGI [9]: 8.14 µM | GI50 [10]: 2.19 µM | TGI [10]: 7.81 µM

Cn1cccc1-c1cc(-c2cccs2)nc(N)c1C#N
GI50 [1]: > 100 µM | TGI [1]: > 100 µM | GI50 [2]: > 100 µM | TGI [2]: > 100 µM | GI50 [3]: > 100 µM | TGI [3]: > 100 µM | GI50 [4]: > 100 µM | TGI [4]: > 100 µM | GI50 [5]: > 100 µM | TGI [5]: > 100 µM | GI50 [6]: > 100 µM | TGI [6]: > 100 µM | GI50 [7]: > 100 µM | TGI [7]: > 100 µM | GI50 [8]: > 100 µM | TGI [8]: > 100 µM | GI50 [9]: > 100 µM | TGI [9]: > 100 µM | GI50 [10]: > 100 µM | TGI [10]: > 100 µM

Cn1cc(-c2ccc3occ(-c4cccc(-c5ccncc5)c4)c3n2)cn1
GI50 [1]: 1.25 µM | TGI [1]: > 100 µM | GI50 [2]: 0.159 µM | TGI [2]: 0.832 µM | GI50 [3]: 2.65 µM | TGI [3]: > 100 µM | GI50 [4]: 1.25 µM | TGI [4]: > 100 µM | GI50 [5]: 0.284 µM | TGI [5]: > 100 µM | GI50 [6]: 0.564 µM | TGI [6]: > 100 µM | GI50 [7]: 1.5 µM | TGI [7]: > 100 µM | GI50 [8]: 0.381 µM | TGI [8]: > 100 µM | GI50 [9]: 0.368 µM | TGI [9]: > 100 µM | GI50 [10]: 2.1 µM | TGI [10]: > 100 µM

COC(=O)[C@H](C[C@H](Cc1ccccc1)NC(=O)c1csc([C@@H](C[C@H](C(C)C)N(C)C(=O)[C@@H](NC(=O)[C@H]2CCCCN2C)C(C)C)OC(C)=O)n1)NC(=O)OCc1ccccc1
GI50 [1]: 0.00159 µM | TGI [1]: > 3.67 µM | GI50 [2]: 0.00112 µM | TGI [2]: 0.0101 µM | GI50 [3]: < 0.0009 µM | TGI [3]: 1.31 µM | GI50 [4]: 0.00843 µM | TGI [4]: > 9 µM | GI50 [5]: < 0.0009 µM | TGI [5]: > 3.46 µM | GI50 [6]: < 0.0009 µM | TGI [6]: > 9 µM | GI50 [7]: 0.00144 µM | TGI [7]: 0.0799 µM | GI50 [8]: < 0.0009 µM | TGI [8]: > 9 µM | GI50 [9]: 0.0333 µM | TGI [9]: 1.52 µM | GI50 [10]: 0.11 µM | TGI [10]: > 9 µM

CN(C)CCCNC(CC#N)CCC#N (stereo not given)
TGI [1]: > 10 µM | TGI [2]: > 10 µM | TGI [3]: > 10 µM | TGI [4]: > 10 µM | TGI [5]: > 10 µM | TGI [6]: > 10 µM | TGI [7]: > 10 µM | TGI [8]: > 10 µM | TGI [9]: > 10 µM | TGI [10]: > 10 µM

CCOC(=O)c1cc(NS(=O)(=O)c2ccccc2)cc(C(=O)OCC)c1
GI50 [1]: > 100 µM | TGI [1]: > 100 µM | GI50 [2]: > 100 µM | TGI [2]: > 100 µM | GI50 [3]: > 100 µM | TGI [3]: > 100 µM | GI50 [4]: > 100 µM | TGI [4]: > 100 µM | GI50 [5]: > 100 µM | TGI [5]: > 100 µM | GI50 [6]: > 100 µM | TGI [6]: > 100 µM | GI50 [7]: > 100 µM | TGI [7]: > 100 µM | GI50 [8]: > 100 µM | TGI [8]: > 100 µM | GI50 [9]: > 100 µM | TGI [9]: > 100 µM | GI50 [10]: > 100 µM | TGI [10]: > 100 µM

COc1ccc2c(c1)cn1c3ccc(O)cc3nc(N)c21
GI50 [1]: 0.947 µM | TGI [1]: 6.86 µM | GI50 [2]: 0.498 µM | TGI [2]: 17.4 µM | GI50 [3]: 0.24 µM | TGI [3]: 5.43 µM | GI50 [4]: 1.51 µM | TGI [4]: 18.5 µM | GI50 [5]: 0.0735 µM | TGI [5]: 2.46 µM | GI50 [6]: 0.0712 µM | TGI [6]: 1.94 µM | GI50 [7]: 0.597 µM | TGI [7]: 23.2 µM | GI50 [8]: 0.131 µM | TGI [8]: 14.7 µM | GI50 [9]: 0.2 µM | TGI [9]: 3.33 µM | GI50 [10]: 1.13 µM | TGI [10]: 5.6 µM

Cc1ccc(-c2cn3ccnc3c(-c3ccc(Cl)cc3)n2)cc1
GI50 [1]: 0.966 µM | TGI [1]: > 59.8 µM | GI50 [2]: 0.389 µM | TGI [2]: 8.11 µM | GI50 [3]: 0.214 µM | TGI [3]: 52.9 µM | GI50 [4]: 0.543 µM | TGI [4]: > 100 µM | GI50 [5]: 0.0352 µM | TGI [5]: > 100 µM | GI50 [6]: 0.384 µM | TGI [6]: 12.4 µM | GI50 [7]: 10.3 µM | TGI [7]: > 100 µM | GI50 [8]: 0.0916 µM | TGI [8]: 13.1 µM | GI50 [9]: 0.102 µM | TGI [9]: > 30.6 µM | GI50 [10]: 0.419 µM | TGI [10]: 24.8 µM
